Laboratory results: EPA's aquatic toxicity sets

test system: Tetrahymena pyriformis; test: 48 h IGC50 (-log10 mol/L); higher = more toxic

SMILES | 48 h IGC50 (-log10 mol/L)
CC(=O)OC(C)C | 1.41
O=[N+]([O-])c1cnc(Cl)c([N+](=O)[O-])c1 | 5.64
Cc1cc([N+](=O)[O-])ccc1Br | 4.16
CC=CC(=O)OC(C)C | 2.22
O=Cc1ccc(Cl)s1 | 3.62
C=CSc1ccccc1 | 3.42
CCCNC | 2.19
CCCC(=O)NN | 2.03
C=CCOC(C)=O | 3.48
CCCc1ccc(O)cc1 | 3.64
C=C(C)C(=O)OCC | 2.07
CCCCCCCC(=O)OC | 3.54
CCCCC/C=C/CO | 3.37
CCC(C)(O)c1ccccc1 (centres undefined) | 3.06
CCCCCCCC(C)O (centres undefined) | 3.62
C/C=C/C=C/C=O | 3.74
CC(C)c1ccc(C=O)cc1 | 3.67
CCCCCOc1ccc(C=O)cc1 | 4.18
Cc1cccc(C)n1 | 2.19
O=C(CBr)c1ccsc1 | 5.22
N#Cc1ccncc1 | 2.18
CCOc1cccc(C=O)c1O | 3.85
C#CC(=O)OC | 4.77

SMILES | 48 h IGC50 (-log10 mol/L)
OCCCCO | 0.764
CCC(O)CC | 1.76
N#Cc1cccc(N)c1 | 2.53
C=CC(=O)OCCCCCCC | 4.09
CNC(C)=O | 1.02
NNC(=O)Cc1ccccc1 | 2.52
Cc1cc[nH]c(=O)c1[N+](=O)[O-] | 2.5
Cc1ccc(C)c(N)c1 | 2.67
Cc1ccc(O)c(Br)c1 | 3.6
COC(=O)C(C)(C)C | 1.72
O=Cc1ccc([N+](=O)[O-])c(O)c1 | 3.27
CC(=O)c1ccc(C#N)cc1 | 2.63
O=C(O)CCC(=O)O | 2.06
Clc1cccc(Br)c1Cl | 4.3
Oc1c(Cl)cc(Br)cc1Cl | 4.78
NCC(O)CN | 1.57
C/C=C/C(=O)OC(C)CC (centres undefined) | 2.58
O=C(c1ccccc1)c1ccc(O)c(O)c1O | 3.88
Cc1cccc(C)c1[N+](=O)[O-] | 3.3
O=C1C=C(c2ccccc2)C(=O)C=C1c1ccccc1 | 4.48
CCOC(=O)c1ccccn1 | 2.08
CCCCCC/C=C/CO | 3.75
N#Cc1cccc(O)c1 | 2.94

SMILES | 48 h IGC50 (-log10 mol/L)
CCC(CC)COC(C)=O | 2.88
CCC#CCC(C)O (centres undefined) | 2.38
c1cnc2ccc3ncccc3c2c1 | 4.14
CNCCO | 1.18
NC(=O)c1cc(Cl)ccc1[N+](=O)[O-] | 2.68
O=Cc1cc(O)c(O)c(O)c1 | 2.8
Cc1ccc(C#N)cc1 | 2.9
CCOC(=O)C[C@H](O)CC#N | 1.36
O=C(CBr)Oc1ccccc1 | 5.08
CCCCCCCCOC(=O)CC#N | 3.9
CCc1ccco1 | 2.48
CC(=S)Nc1ccccc1 | 2.99
O=C(O)CCBr | 2.96
CCS(=O)(=O)CC | 1.16
N#CCCC#N | 1.18
O=C(Oc1ccccc1)c1ccccc1 | 4.35
O=[N+]([O-])c1cccc(CO)c1 | 2.78
C=C(C)CCC(C)=O | 2.12
OCC(Cl)Cl | 2.01
c1ccc2nc3ccccc3nc2c1 | 4.4
Cc1ccc(Br)cc1 | 3.47
C=CCOC(=O)C=CC | 2.52
CC(=O)c1cccs1 | 2.41
